Reference: paper PMC8393326, “A Thermodynamic Analysis of the Binding Specificity between Four Human PDZ Domains and Eight Host, Viral and Designed Ligands” (Biomolecules, 2021)
Like-named read-outs stand apart in the source and are kept apart here. Where no end group is shown, it is not given here.

Assays:
Erbin-PDZ [1] = details: ERBB2 C-terminal tail of 9 residues; cited from earlier work
Excerpt: Again, no class II or III peptides were able to bind PSD95-PDZ3 either. […] Instead, the striking resu ...

PSD95-PDZ2 [2] = molecular target: T1, PSD95-PDZ2 (Homo sapiens, UniProt P78352); test: ITC titration of PSD95-PDZ2 with peptides; format: binding; parameters: key to interaction or not with PSD95 PDZ2: The tick (✓) and the cross (✕) signs mean whether there is interaction or not, respectively, as demonstrated in this study; The tick (✓) and the cross (✕) signs mean whether there is interaction or not, respectively, as demonstrated in this study; details: for Kd: ITC, 25 °C, 50 mM potassium phosphate pH 7.5, protein 70 μM in cell, peptide 900 μM, single-site model, n 0.8 to 1.1; for interaction or not with PSD95 PDZ2: Figure 1 summary, ITC, and DSC where ITC showed no binding
T1 construct: PSD95-PDZ2 (residues 155–249, according to PSD95 numbering); made in house; host or cells: Escherichia coli BL21-DE3
T1 sequence (P78352 155-249): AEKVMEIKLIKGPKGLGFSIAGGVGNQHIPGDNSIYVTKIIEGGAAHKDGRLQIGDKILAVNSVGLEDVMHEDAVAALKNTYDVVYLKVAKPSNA
Protocol: (§1) The DNA encoding the sequences of PSD95-PDZ2 (residues 155–249, according to PSD95 numbering), PSD95-PDZ3 (residues 302–415, according to PSD95 numbering), nNOS-PDZ (residues 1–127, in nNOS numbering) and Erbin-PDZ (given generously by Prof. Sachdev Sidhu, University of Toronto, Toronto, ON, Canada), were sub-cloned into pBAT4 vector (EMBL Core Purification Facility, Heidelberg, Germany) and expressed in Escherichia coli BL21-DE3 cells. Protein purification was carried out as previously described. Briefly, cultures were over-expressed overnight and centrifuged. After cell lysis with a French press, the lysates were centrifuged and the pH of the supernatant was lowered down to a pH of 3 with diluted HCl. Upon centrifugation, ammonium sulfate was added to the samples, which were then injected into an AKTA FPLC for preparative size exclusion chromatography. Roughly 15 milligrams of protein per liter of LB culture were obtained and purity was determined by SDS-Page electrophoresis. MALDI-TOF spectrometry, performed at the Scientific Instrumentation Services (CIC) of the University of Granada (Granada, Spain), confirmed the molecular mass for each PDZ domain. Extinction coefficients, determined as described, were used to calculate sample concentration. Experimental samples were always prepared by extensive dialysis against 50 mM potassium phosphate buffer at a pH of 7.5 and 4 °C.
(§2) Calorimetric titrations of the PDZ domains with the peptides were undertaken at 25 °C on an ITC-200 titration microcalorimeter (Microcal Inc., Northampton, MA, USA), as previously described. Protein concentrations in the cell were routinely 70 μM and peptides solutions were prepared using the dialysis buffer to have a final concentration of 900 μM. Titrations were all made by injecting 2 μL volumes of ligand solution, with a final number of 19 injections per experiment. As a control and reference, independent experiments were carried out with only buffer in the calorimeter cell with the same ligand solutions to determine the corresponding heat dilution. The dilution isotherms were then subtracted from that obtained for protein titration. The binding stoichiometry, n, the dissociation constant, Kd and the corresponding enthalpy change, ΔH, were determined by fitting the resulting titration isotherm to a model considering a single ligand binding site using ORIGIN 7.0 (OriginLab Corporation, Northampton, MA, USA, 2002).
(§3) We performed ITC experiments at 25 °C between all the selected PDZ domains and peptides. For the sake of comparison, the experiments were all conducted in the same buffer conditions, 50 mM potassium phosphate and pH of 7.5, which presents the advantage of having an insignificant protonation heat, meaning that the experimentally determined enthalpy changes should just account for the net heat of reaction. A table summarizing all interactions is shown in Figure 1, whilst we have just included the successful experiments graphs, both in Figure 2 and in the SI (Figure S1).

PSD95-PDZ3 [3] = molecular target: T2, PSD95-PDZ3 (Homo sapiens, UniProt P78352); test: ITC titration of PSD95-PDZ3 with peptides; format: binding; parameters: key to interaction or not with PSD95 PDZ3: The tick (✓) and the cross (✕) signs mean whether there is interaction or not, respectively, as demonstrated in this study; The tick (✓) and the cross (✕) signs mean whether there is interaction or not, respectively, as demonstrated in this study; details: for Kd: ITC, 25 °C, 50 mM potassium phosphate pH 7.5, protein 70 μM in cell, peptide 900 μM, single-site model, n 0.8 to 1.1; for interaction or not with PSD95 PDZ3: Figure 1 summary, ITC, and DSC where ITC showed no binding
T2 construct: PSD95-PDZ3 (residues 302–415, according to PSD95 numbering); made in house; host or cells: Escherichia coli BL21-DE3
T2 sequence (P78352 302-415): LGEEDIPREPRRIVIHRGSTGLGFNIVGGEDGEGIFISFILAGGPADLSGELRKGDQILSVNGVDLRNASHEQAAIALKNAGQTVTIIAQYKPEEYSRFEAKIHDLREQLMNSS
Protocol: as §1, §2, §3

Erbin-PDZ [4] = molecular target: T3, Erbin-PDZ (Homo sapiens, UniProt Q96RT1); test: ITC titration of Erbin-PDZ with peptides; format: binding; parameters: key to interaction or not with Erbin PDZ: The tick (✓) and the cross (✕) signs mean whether there is interaction or not, respectively, as demonstrated in this study; The tick (✓) and the cross (✕) signs mean whether there is interaction or not, respectively, as demonstrated in this study; details: for Kd: 50 mM potassium phosphate pH 7.5, protein 70 μM in cell, peptide 900 μM, single-site model, n 0.8 to 1.1; for interaction or not with Erbin PDZ: Figure 1 summary, ITC, and DSC where ITC showed no binding
T3 construct: made in house; host or cells: Escherichia coli BL21-DE3
T3 sequence (Q96RT1 1321-1410 limits assumed): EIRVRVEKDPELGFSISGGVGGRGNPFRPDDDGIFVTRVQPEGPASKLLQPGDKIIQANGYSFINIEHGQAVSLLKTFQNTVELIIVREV
Protocol: as §1, §2, §3

nNOS-PDZ = test: DSC of nNOS-PDZ with and without peptides (Tm displacement); format: binding, human; parameters: key to interaction or not with nNOS PDZ: The tick (✓) and the cross (✕) signs mean whether there is interaction or not, respectively, as demonstrated in this study; The tick (✓) and the cross (✕) signs mean whether there is interaction or not, respectively, as demonstrated in this study; details: for ΔTm of nNOS-PDZ: DSC, PDZ:peptide 1:3, 50 mM potassium phosphate pH 7.5, nNOS-PDZ alone 55 °C; for interaction or not with nNOS PDZ: Figure 1 summary, no binding by ITC, interaction shown by DSC
Protocol: (§4) Experiments were carried out in a VP-DSC instrument from Microcal INC. as described elsewhere. The buffer conditions were the same as with ITC experiments, 50 mM buffer potassium phosphate at a pH of 7.5. For experiments including the peptides, the final concentration ratio was 1:3 (protein:peptide). Final data were obtained after treatment with ORIGIN 7.0 (OriginLab Corporation, Northampton, MA, USA, 2002).
(§5) The final ratio of PDZ:peptide was always 1:3. DSC is also a calorimetric technique but that allows finding a more subtle binding, weaker than that from ITC [33]. Undoubtedly, ITC presents greater advantages, since it gives an exhaustive characterization of the binding interaction, granting the whole thermodynamics of the system; nevertheless, if the interactions are out of the ITC range, usually when they are weak (Kd values in the mM range), it is not sensitive enough to detect binding. By contrast, DSC can detect weak binding by a displacement of the melting temperature (Tm) due to the stabilization that occurs upon binding. Essentially, when a ligand is bound to the protein, energy is needed to decouple the interacting pair before protein denaturalization. In this way, the Tm is increased and the ΔTm is proportional to the interaction energy.

PSD95-PDZ3 [5] = molecular target: T2, PSD95-PDZ3; details: cited from earlier work
Excerpt: Unfortunately, the calorimetric traces for nNOS-PDZ are highly irreversible, which prevents an analysis that would potentially yield a Kd value. Instead, we can approximately estimate a Kd range based on previous cases in PDZ binding. We have taken as a reference two PDZ-peptide interactions. Firstly, the binding of PSD95-PDZ3 with the peptide KKETAV formerly described by us. We had previously performed both ITC and DSC with PSD95-PDZ3 and KKETAV. The concentrations ...

PSD95-PDZ2 [6] = molecular target: T1, PSD95-PDZ2; test: DSC of PSD95-PDZ2 with and without peptides; format: binding; details: PDZ:peptide 1:3, 50 mM potassium phosphate pH 7.5 (Figure S2)
Protocol: as §4, §5

Substance | Kd (PSD95-PDZ2 [2]) [µM] | Kd (Erbin-PDZ [4]; ITC, 25 °C) [µM] | interaction or not with PSD95 PDZ2 (PSD95-PDZ2 [2]) | interaction or not with PSD95 PDZ3 (PSD95-PDZ3 [3]) | interaction or not with Erbin PDZ (Erbin-PDZ [4]) | ΔTm of nNOS-PDZ (nNOS-PDZ) [°C] | interaction or not with nNOS PDZ (nNOS-PDZ) | also measured
EYLGLDVPV [ERBB2 C-terminal tail comprising 9 residues, literature value] |  |  |  |  |  |  |  | Kd (Erbin-PDZ [1]): ~50 µM
FRETEV [HTLV1 Tax] | 1.5 ± 0.1 | 7.8 ± 0.9 |  |  |  |  |  | Kd (PSD95-PDZ3 [3]): 3.8 ± 0.2 µM
GLDVPV (UniProt P04626 1250-1255, looked up, fragment) [ERBB2, six-residue C-terminal peptide of host receptor tyrosine kinase ERBB2, class II PDZ ligand] |  |  | ✕ | ✕ | ✕ | 2 | ✓ | binding to Erbin-PDZ by ITC (Erbin-PDZ [4]; ITC, 25 °C, 50 mM potassium phosphate pH 7.5): lack of binding
IAESSV [HTLV3 Tax] | 20 ± 3.8 | 23 ± 9 |  |  |  |  |  | Kd (PSD95-PDZ3 [3]): 43 ± 10 µM
KIATLV [AdV E4 ORF1] | 11.5 ± 0.5 |  |  |  |  |  |  | 
KKETAV |  |  |  |  |  |  |  | ΔTm of PSD95-PDZ3 (PSD95-PDZ3 [5]; DSC, PDZ:peptide 1:3): about 9 °C; Kd (PSD95-PDZ3 [5]; ITC, same concentrations as this study): 1.5 µM
LLDEIAV [CAPON, C-terminus of CAPON, cytoplasmic protein; class II peptide, cognate nNOS partner] |  |  | ✕ | ✕ | ✕ | 3 | ✓ | 
TGWETWV [Erbin PDZ binder] | 5.7 ± 0.2 | 0.24 ± 0.08 |  |  |  |  |  | ΔTm of PSD95-PDZ2 (PSD95-PDZ2 [6]): around 6 °C
VVKVDSV [MelR, C-terminal region of a melatonin receptor] |  |  | ✕ | ✕ | ✕ | 3 | ✓ | 
